Measurements: publication PMC5785958, “New role of phenothiazine derivatives as peripherally acting CB1 receptor antagonizing anti-obesity agents” (Scientific Reports, 2018)

Legend:
[1] = tested on: Wistar rats; experiment: Acute hypophagic response in 24 h food-deprived rats; format: in vivo, rat; settings: for effect on food intake (in words): 2 h
Protocol: As a preliminary screening, the synthesized compounds were evaluated for acute hypophagia in rats and the results are summarized in Fig. 5. Twenty four hour food deprived Wistar rats were given weighed amounts of food pellets after administration of the test compounds. Quantum of food consumed by the control group of animals was considered as 100%.
Male Wistar rats weighing 200–250 g were used in the present study to assess the acute hypophagic response. Animals were housed individually in a plexi-glass cage in a temperature and humidity controlled room with a 12 h light/dark cycle. Standard chow pellets and water were made available ad libitum. Animals were handled daily for a week before performing the actual experiments. The animal study protocol was approved by the Institutional Animal Ethics Committee (IAEC) of Faculty of Pharmacy, The Maharaja Sayajirao University of Baroda (Approval no. MSU/IAEC/2014-15/1401). The experiments were conducted in accordance to the guidelines of CPCSEA (Committee for the Purpose of Control and Supervision of Experiments on Animals), Ministry of Environment & Forests, Govt. of India. We tried our best to reduce the number of animals and their suffering.
The acute effect of the synthesized test compounds on feeding behavior was assessed in 24 h food-deprived animals. Before performing the experiments, the bedding material was removed from the cage. The animals were deprived of feed for 24 h with free access to water. The fasted animals were administered with the test compounds (10 mg/kg, p.o.). After 30 min of administration, weighed amounts of food pellets were served to the animals. Amount of food pellets and food spillage remaining after 2 h were weighed to find out the amount of food consumed by the animals.

[2] = PAMPA-BBB in vitro permeability assay; format: in vitro ADME, porcine; set-up: key to Prediction (penetration in CNS): CNS- indicates low passive CNS permeation; settings: for Prediction (penetration in CNS): from PAMPA-BBB Pe, Pe less than 3.8 × 10^−6 cm s^−1 = low BBB permeation; for Papp at 120 min, 100 µg/ml: pig, PAMPA-BBB, porcine brain lipid, PBS/ethanol (70:30), 25 °C, mean ± SEM of three experiments, read-out: Pe
Protocol: As discussed above, BBB permeation of the available CB1 receptor antagonists limits their therapeutic utility. A successful CB1 receptor antagonist to be used as anti-obesity agent must be devoid of BBB permeability. […] In this study, the ability of the test compounds to cross the BBB was determined by the well established in vitro model PAMPA-BBB assay. This simple and rapid model has the advantage to predict passive BBB permeation with high accuracy[57],[58]. The in vitro permeability (Pe) of the test compounds through the lipid extract of porcine brain was determined in PBS/ethanol (70:30).
To assess the in vivo brain permeability potential of the test compounds, PAMPA assay for BBB was performed as reported by Di. et al.[57]. The donor microplate (polyvinylidene fluoride (PVDF) membrane, diameter 25 mm, pore size 0.45 µm Millipore) and the acceptor microplate were used for the experiment. The acceptor microplate was filled with 200 µl phosphate buffer saline (PBS) and ethanol in the ratio of 70:30 whereas the donor microplate filter surface was impregnated with porcine brain lipid (Avanti Polar Lipids) in dodecane (Sigma) (4 µl of 20 mg/ml). 200 µl of the test compound (100 µg/ml in PBS/ethanol) was added to the donor well. A sandwich was formed by placing the donor plate carefully on the acceptor plate, and the plates were kept undisturbed for 120 min at 25 °C. The donor plate was carefully detached after the incubation period and concentration of the test compound in the acceptor wells was determined using UV spectroscopy. Each sample was analyzed in four wells at five different wavelengths, and at least in three independent runs. Assay validation was performed by using nine commercial quality standard drugs of known BBB permeability[75] in which the reported permeability values of the standards were compared with their experimental permeability values, which gave a linear relationship, Pe(exp.) = 1.171Pe(bibl.) + 1.489 (R^2 = 0.983)[57],[58].

[3] = 24 h fasted male Wistar rats, 10 mg/kg p.o., food served after 30 min, intake over 2 h
[4] = 24 h fasted male Wistar rats, 10 mg/kg p.o.

SMILES | melting point | food intake (control = 100%) [1, 3] | Prediction (penetration in CNS) [2] | Papp at 120 min, 100 µg/ml [2] | effect on food intake (in words) [1, 4] | food intake (control = 100%) ([1]; 24 h fasted male Wistar rats, 10 mg/kg p.o., food served after 30 min, intake over 2 h, 10 mg/kg) | food intake (control = 100%) ([1]; po, 10 mg/kg)
CCOC(=O)c1cnc(SCCCN2c3ccccc3Sc3ccccc32)nc1N [Compound 49, Ethyl 4-amino-2-(3-(10H-phenothiazin-10-yl)propylthio)pyrimidine-5-carboxylate] | 146 to 148 °C |  |  |  |  |  | 
N#Cc1cnc(SCCCN2c3ccccc3Sc3ccc(Cl)cc32)nc1N [Compound 43, 4-Amino-2-(3-(2-chloro-10H-phenothiazin-10-yl)propylthio)pyrimidine-5-carbonitrile] | 138 to 140 °C | 62–74% | CNS- | 3.47 ± 0.66 ×10⁻⁶ cm/s |  |  | 
O=C(CSc1nnc(-c2ccncc2)o1)N1c2ccccc2Sc2ccc(Cl)cc21 [Compound 30, 1-(2-Chloro-10H-phenothiazin-10-yl)-2-(5-(4-pyridyl)-1,3,4-oxadiazol-2-ylthio)ethanone] | 194 to 196 °C |  |  |  |  |  | 
CCOC(=O)c1cnc(SCCCN2c3ccccc3Sc3ccc(Cl)cc32)nc1N [Compound 47, Ethyl 4-amino-2-(3-(2-chloro-10H-phenothiazin-10-yl)propylthio)pyrimidine-5-carboxylate] | 120 to 122 °C | 62–74% | CNS- | 3.28 ± 0.38 ×10⁻⁶ cm/s |  |  | 
COc1ccc2c(c1)N(C(=O)CSc1nnc(-c3ccncc3)n1N)c1ccccc1S2 [Compound 35, 2-(4-Amino-5-(4-pyridyl)-4H-1,2,4-triazol-3-ylthio)-1-(2-methoxy-10H-phenothiazin-10-yl)ethanone] | 188 to 190 °C |  |  |  |  |  | 
Nn1c(SCC(=O)N2c3ccccc3Sc3ccc(C(F)(F)F)cc32)nnc1-c1ccncc1 [Compound 33, 2-(4-Amino-5-(4-pyridyl)-4H-1,2,4-triazol-3-ylthio)-1-(2-(trifluoromethyl)-10H-phenothiazin-10-yl)ethanone] | 202 to 204 °C | 80–99% | CNS- | 1.05 ± 0.22 ×10⁻⁶ cm/s | did not impact the food intake |  | 
Nn1c(SCC(=O)N2c3ccccc3Sc3ccccc32)nnc1-c1ccncc1 [Compound 36, 2-(4-Amino-5-(4-pyridyl)-4H-1,2,4-triazol-3-ylthio)-1-(10H-phenothiazin-10-yl)ethanone] | 232 to 234 °C |  |  |  |  |  | 
CCOC(=O)c1cnc(SCCCN2c3ccccc3Sc3ccc(OC)cc32)nc1N [Compound 48, Ethyl 4-amino-2-(3-(2-methoxy-10H-phenothiazin-10-yl)propylthio)pyrimidine-5-carboxylate] | 106 to 108 °C |  |  |  |  |  | 
COc1ccc2c(c1)N(C(=O)CSc1nnc(-c3ccncc3)o1)c1ccccc1S2 [Compound 31, 1-(2-Methoxy-10H-phenothiazin-10-yl)-2-(5-(4-pyridyl)-1,3,4-oxadiazol-2-ylthio)-ethanone] | 166 to 168 °C |  |  |  |  |  | 
CCOC(=O)c1cnc(SCC(=O)N2c3ccccc3Sc3ccccc32)nc1N [Compound 28, Ethyl 4-amino-2-(2-oxo-2-(10H-phenothiazin-10-yl)ethylthio)pyrimidine-5-carboxylate] | 202 to 204 °C |  |  |  |  |  | 
N#Cc1cnc(SCCCN2c3ccccc3Sc3ccc(C(F)(F)F)cc32)nc1N [Compound 42, 4-Amino-2-(3-(2-trifluoromethyl-10H-phenothiazin-10-yl)propylthio)pyrimidine-5-carbonitrile] | 164 to 166 °C | 80–99% | CNS- | 2.6 ± 0.18 ×10⁻⁶ cm/s | no effect on the food intake |  | 
CCOC(=O)c1cnc(SCCCN2c3ccccc3Sc3ccc(C(F)(F)F)cc32)nc1N [Compound 46, Ethyl 4-amino-2-(3-(2-trifluoromethyl-10H-phenothiazin-10-yl)propylthio)pyrimidine-5-carboxylate] | 118 to 120 °C | 62–74% | CNS- | 2.84 ± 0.28 ×10⁻⁶ cm/s |  |  | 
N#Cc1cnc(SCCCN2c3ccccc3Sc3ccccc32)nc1N [Compound 45, 4-Amino-2-(3-(10H-phenothiazin-10-yl)propylthio)pyrimidine-5-carbonitrile] | 117 to 119 °C |  |  |  |  |  | 
N#Cc1cnc(SCC(=O)N2c3ccccc3Sc3ccc(Cl)cc32)nc1N [Compound 22, 4-Amino-2-(2-(2-chloro-10H-phenothiazin-10-yl)-2-oxoethylthio)pyrimidine-5-carbonitrile] | 222 to 224 °C | 62–74% | CNS- | 2.28 ± 0.11 ×10⁻⁶ cm/s |  |  | 
CCOC(=O)c1cnc(SCC(=O)N2c3ccccc3Sc3ccc(Cl)cc32)nc1N [Compound 26, Ethyl 4-amino-2-(2-(2-chloro-10H-phenothiazin-10-yl)-2-oxoethylthio)pyrimidine-5-carboxylate] | 156 to 158 °C | 62–74% | CNS- | 3.66 ± 0.67 ×10⁻⁶ cm/s |  |  | 
N#Cc1cnc(SCC(=O)N2c3ccccc3Sc3ccccc32)nc1N [Compound 24, 4-Amino-2-(2-oxo-2-(10H-phenothiazin-10-yl)ethylthio)pyrimidine-5-carbonitrile] | 241 to 243 °C |  |  |  |  |  | 
N#Cc1cnc(SCC(=O)N2c3ccccc3Sc3ccc(C(F)(F)F)cc32)nc1N [Compound 5, 4-Amino-2-(2-(2-trifluoromethyl-10H-phenothiazin-10-yl)-2-oxoethylthio)pyrimidine-5-carbonitrile] | 218 to 220 °C |  | CNS- | 2.78 ± 0.14 ×10⁻⁶ cm/s | weak short acting hypophagic activity | 62–74% | 62%
O=C(CSc1nnc(-c2ccncc2)o1)N1c2ccccc2Sc2ccccc21 [Compound 32, 1-(10H-Phenothiazin-10-yl)-2-(5-(4-pyridyl)-1,3,4-oxadiazol-2-ylthio)ethanone] | 212 to 214 °C | 80–99% | CNS- | 3.22 ± 0.63 ×10⁻⁶ cm/s | no effect on food intake |  | 
O=C(CSc1nnc(-c2ccncc2)o1)N1c2ccccc2Sc2ccc(C(F)(F)F)cc21 [Compound 29, 2-(5-(4-Pyridyl)-1,3,4-oxadiazol-2-ylthio)-1-(2-trifluoromethyl-10H-phenothiazin-10-yl)ethanone] | 156 to 158 °C |  |  |  |  |  | 
COc1ccc2c(c1)N(CCCSc1ncc(C#N)c(N)n1)c1ccccc1S2 [Compound 44, 4-Amino-2-(3-(2-methoxy-10H-phenothiazin-10-yl)propylthio)pyrimidine-5-carbonitrile] | 158 to 160 °C | 62–74% | CNS- | 3.58 ± 0.73 ×10⁻⁶ cm/s |  |  | 
